# Results published in ChEMBL document CHEMBL1201862, “PubChem BioAssay data set” (2004).
# “And” between values parts separate entries of the source, which are not always exact repeats. Identical values can stand only once. The source made the active and inactive calls.
# Assays:
# Cytochrome P450 2C19 = Cytochrome P450 2C19 (Homo sapiens, UniProt P33261); test: Cytochrome panel assay with activity outcomes. Panel member name: p450-cyp2c19 Compounds with AC50 equal or less than 10 uM are considered active; format: functional
# [1] = cytotoxicity toward NIH3T3 fibroblasts, dose response, counter-screen, cell-based, ATP luminescence, mouse fibroblasts (AID 2010); format: functional;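 note: cells exposed to compound for about 90 hours before reading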
# [2] = inhibitors of intracellular T. cruzi replication, confirmation, NIH3T3 host cells, beta-gal luminescence (AID 2044); format: functional, cell-based;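 note: intracellular parasites grown in NIH/3T3 mouse fibroblasts as host cells; luminescent beta-galactosidase reporter signal from transgenic T. cruzi replicating inside host cells; inhibitors lower the luminescence signal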
# Cytochrome P450 2C9 = Cytochrome P450 2C9 (Homo sapiens, UniProt P11712)
# [3] = Luminescence Cell-Based Dose Retest to Confirm Inhibitors of Cancer Stem Cells. [Related pubchem assays (depositor defined):AID2717, AID2721]; format: functional; conditions: Homo sapiens
# Cytochrome P450 3A4 = Cytochrome P450 3A4 (Homo sapiens, UniProt P08684);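 note: CYP3A4 tested as one member of a cytochrome P450 panel screen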
# [4] = molecular target: T1, Corticotropin-releasing factor receptor 2/Corticotropin-releasing factor-binding protein (Homo sapiens, UniProt P24387+Q13324); test: activators of CRF receptor 2 with binding protein – uHTS hits, confirmation (AID 602473); format: functional; conditions: read-out: EC50_Mean
# T1 sequence (Q13324 whole entry): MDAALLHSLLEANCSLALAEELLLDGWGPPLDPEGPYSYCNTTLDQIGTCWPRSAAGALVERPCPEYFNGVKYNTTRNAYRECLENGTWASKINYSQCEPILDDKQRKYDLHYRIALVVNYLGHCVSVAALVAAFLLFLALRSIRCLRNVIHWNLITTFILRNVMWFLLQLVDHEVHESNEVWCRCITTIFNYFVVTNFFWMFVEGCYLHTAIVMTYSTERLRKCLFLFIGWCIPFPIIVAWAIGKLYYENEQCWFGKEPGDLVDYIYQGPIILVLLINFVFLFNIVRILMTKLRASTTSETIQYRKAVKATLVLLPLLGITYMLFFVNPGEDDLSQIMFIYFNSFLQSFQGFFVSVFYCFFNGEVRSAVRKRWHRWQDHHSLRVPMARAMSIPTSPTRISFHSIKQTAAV
# T1 sequence (P24387 whole entry): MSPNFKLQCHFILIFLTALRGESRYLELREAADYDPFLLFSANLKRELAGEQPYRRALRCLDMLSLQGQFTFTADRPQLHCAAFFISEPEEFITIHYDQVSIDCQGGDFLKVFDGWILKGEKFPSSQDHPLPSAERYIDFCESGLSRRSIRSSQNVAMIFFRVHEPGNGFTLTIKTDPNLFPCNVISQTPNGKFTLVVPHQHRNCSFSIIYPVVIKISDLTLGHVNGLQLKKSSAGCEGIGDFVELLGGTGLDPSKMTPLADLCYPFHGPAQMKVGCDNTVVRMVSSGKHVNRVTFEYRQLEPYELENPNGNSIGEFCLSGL
# [5] = molecular target: T2, Heat shock factor protein 1 (Mus musculus, UniProt P38532); test: inhibition of MG132-induced HSE-luciferase signal, confirmation, cell-based, NIH3T3, luminescence, dose retest (AID 2382); format: functional;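 note: NIH3T3 fibroblasts with HSF1-driven luciferase reporter stressed by proteasome inhibitor MG132; luminescence from HSF1-driven luciferase expression after 8 hours of MG132 stress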
# T2 sequence (P38532 whole entry): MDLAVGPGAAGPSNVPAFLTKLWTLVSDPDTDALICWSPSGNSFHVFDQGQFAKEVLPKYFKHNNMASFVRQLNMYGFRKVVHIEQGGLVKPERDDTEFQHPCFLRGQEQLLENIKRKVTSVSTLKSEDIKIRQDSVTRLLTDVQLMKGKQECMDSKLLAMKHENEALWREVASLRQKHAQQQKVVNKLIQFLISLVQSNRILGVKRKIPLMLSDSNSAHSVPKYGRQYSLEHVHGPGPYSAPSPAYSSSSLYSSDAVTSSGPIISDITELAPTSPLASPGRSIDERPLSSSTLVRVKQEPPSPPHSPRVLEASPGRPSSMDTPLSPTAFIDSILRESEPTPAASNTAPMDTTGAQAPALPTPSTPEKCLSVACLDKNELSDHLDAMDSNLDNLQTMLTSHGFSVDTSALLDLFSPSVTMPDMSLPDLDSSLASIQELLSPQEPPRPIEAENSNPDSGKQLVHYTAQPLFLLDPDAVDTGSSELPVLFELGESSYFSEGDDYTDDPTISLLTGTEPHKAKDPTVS
# [6] = Luminescence Cell-Based Dose Response HTS to Identify Activators of Luciferase Translation or Activity in H4 […] Cells. [Related pubchem assays: 1829 (Project Summary), 1814 (Primary HTS)]; format: functional
# Cytochrome P450 3A4, sequence (P08684 whole entry): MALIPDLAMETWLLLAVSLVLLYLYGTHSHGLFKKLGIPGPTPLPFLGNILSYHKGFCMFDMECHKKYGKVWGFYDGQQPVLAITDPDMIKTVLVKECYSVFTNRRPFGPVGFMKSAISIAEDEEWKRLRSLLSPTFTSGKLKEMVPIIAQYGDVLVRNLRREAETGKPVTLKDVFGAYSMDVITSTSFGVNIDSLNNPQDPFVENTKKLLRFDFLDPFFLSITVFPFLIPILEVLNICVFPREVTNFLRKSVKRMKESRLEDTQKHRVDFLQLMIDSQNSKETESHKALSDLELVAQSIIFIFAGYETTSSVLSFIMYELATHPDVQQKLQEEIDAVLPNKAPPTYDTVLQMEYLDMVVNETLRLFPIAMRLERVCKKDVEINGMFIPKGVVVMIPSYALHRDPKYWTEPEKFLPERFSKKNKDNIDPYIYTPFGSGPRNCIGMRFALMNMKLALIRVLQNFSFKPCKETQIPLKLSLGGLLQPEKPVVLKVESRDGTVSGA
# Cytochrome P450 2C9, sequence (P11712 whole entry): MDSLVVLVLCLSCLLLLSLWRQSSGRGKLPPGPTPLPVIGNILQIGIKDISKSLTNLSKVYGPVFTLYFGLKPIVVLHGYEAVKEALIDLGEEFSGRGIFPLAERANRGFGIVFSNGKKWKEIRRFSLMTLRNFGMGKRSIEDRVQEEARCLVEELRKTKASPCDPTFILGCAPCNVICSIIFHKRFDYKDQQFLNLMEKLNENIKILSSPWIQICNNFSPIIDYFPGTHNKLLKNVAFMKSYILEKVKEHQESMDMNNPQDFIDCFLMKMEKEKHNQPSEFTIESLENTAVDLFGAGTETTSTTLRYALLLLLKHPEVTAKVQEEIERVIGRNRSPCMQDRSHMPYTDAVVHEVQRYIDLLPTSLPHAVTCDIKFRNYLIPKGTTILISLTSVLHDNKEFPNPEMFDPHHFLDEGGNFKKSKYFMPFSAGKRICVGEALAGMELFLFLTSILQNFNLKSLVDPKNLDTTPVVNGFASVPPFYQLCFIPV
# Cytochrome P450 2C19, sequence (P33261 whole entry): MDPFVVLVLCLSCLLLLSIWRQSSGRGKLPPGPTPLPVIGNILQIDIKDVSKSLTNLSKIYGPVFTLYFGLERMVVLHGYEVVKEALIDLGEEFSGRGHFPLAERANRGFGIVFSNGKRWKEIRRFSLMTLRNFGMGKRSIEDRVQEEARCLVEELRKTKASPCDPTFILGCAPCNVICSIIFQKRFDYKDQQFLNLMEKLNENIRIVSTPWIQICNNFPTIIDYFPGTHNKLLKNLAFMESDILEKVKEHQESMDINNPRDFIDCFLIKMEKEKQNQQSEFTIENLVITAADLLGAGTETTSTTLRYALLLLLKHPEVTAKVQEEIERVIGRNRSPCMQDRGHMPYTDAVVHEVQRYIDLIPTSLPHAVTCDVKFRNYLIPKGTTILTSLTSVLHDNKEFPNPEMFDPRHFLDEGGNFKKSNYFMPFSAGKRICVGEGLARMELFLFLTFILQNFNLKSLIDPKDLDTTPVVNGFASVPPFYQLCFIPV
smiles,measurement,setting,value
CN1CCC[C@@H]1c1cccnc1.Cc1ccc(C(=O)O[C@@H](C(=O)O)[C@@H](OC(=O)c2ccc(C)cc2)C(=O)O)cc1,AC50,Cytochrome P450 2C19,inconclusive
Fc1ccccc1Nc1nc(-c2ccncc2)nc2ccccc12,EC50,[1],> 60 µM (not active)
same,EC50,[2],1.32 µM (active)
Cn1c(CN2CCCC(C(=O)c3ccc4c(c3)OCO4)C2)nc2ccccc21 (stereo not given),EC50,[1],> 60 µM (inconclusive)
same,EC50,[2],1.35 µM (active)
CC(C)c1ccc(CNCCCSc2ncccn2)cc1,EC50,[1],> 30 µM (not active)
same,EC50,[2],0.163 µM (active)
O=C(O)CCC(=O)N1CCc2cc(S(=O)(=O)N3CCCCC3)ccc21,AC50,Cytochrome P450 2C9,15.8 µM (inconclusive)
Cc1onc(-c2ccc(Cl)cc2)c1-c1ccnc(SCC(=O)Nc2cc(Cl)cc(Cl)c2)n1,EC50,[1],> 60 µM (not active)
same,EC50,[2],1.72 µM (active)
CCCOc1c(OC)cccc1C1CC(=O)Nc2cc3c(cc21)OCCO3 (stereo not given),AC50,[3],1.85 µM (active)
O=C(C1CCN(S(=O)(=O)N2CCOCC2)CC1)N1CCN(c2ccccc2)CC1,AC50,Cytochrome P450 2C9,22.4 µM (inconclusive)
Clc1ccc(Cl)c(Nc2ccnc(SCc3ccccc3)n2)c1,AC50,Cytochrome P450 3A4,3.98 µM (inconclusive)
same,AC50,Cytochrome P450 2C9,6.31 µM (inconclusive)
COCCCNC(=O)C1CC(=O)N(CCc2ccc(OC)c(OC)c2)C1 (stereo not given),AC50,Cytochrome P450 3A4,15.8 µM (inconclusive)
CC(C)N(CCNC(=O)C1CCC(=O)N1Cc1ccc(F)cc1)Cc1ccccc1 (stereo not given),AC50,Cytochrome P450 2C9,22.4 µM (inconclusive)
O=C(CSc1ncc(-c2ccccc2)n1C1CCCC1)N1CCc2ccccc21,EC50,[4],> 53 µM (inactive)
same,EC50,[1],> 60 µM (not active)
same,EC50,[2],1.81 µM (active)
COC(=O)[C@@]1(Cc2ccc(F)cc2)[C@H]2c3cc(C(=O)N4CCCC4)n(CCc4c[nH]c5ccc(OC)cc45)c3C[C@H]2CN1C(=O)c1ccccc1,AC50,Cytochrome P450 3A4,0.251 µM (inconclusive)
COc1ccc(OC)c(Nc2c3ccccc3nc3ccccc23)c1,AC50,[3],3.78 µM (active)
c1cncc(CNc2cc(-c3ccoc3)ncn2)c1,AC50,Cytochrome P450 3A4,3.98 µM (inconclusive)
C[C@@H]1CC=C[C@H]2[C@H]1C(=O)N(Cc1ccccc1)[C@H]2c1ccc2ccccc2c1,AC50,[3],5.69 µM (active)
COc1ccccc1NC(=O)Cn1c(=O)c(N(C)C)c(N)n(C)c1=O,EC50,[5],> 195 µM (not active)
CCC(=O)N(Cc1ccco1)c1nc(-c2ccccc2)cs1,AC50,Cytochrome P450 3A4,39.8 µM (inconclusive)
CCOC(=O)c1c(-c2ccccc2)n(C)c2ccc(O)cc12,EC50,[5],> 195 µM (not active)
Cc1ccc(SC[C@H](C)CN2CC[C@H](C(C)(C)C)CCC2=O)cc1,AC50,[3],1.56 µM (active)
COc1ccc(C(=O)C2CCCN(Cc3cccn3-c3ccc(Cl)cn3)C2)c(OC)c1 (stereo not given),EC50,[1],> 60 µM (not active)
same,EC50,[2],1.47 µM (active)
COc1cccc(-c2nccc(NCc3cccc(C)c3)n2)c1,AC50,Cytochrome P450 2C9,1.58 µM (inconclusive)
C=CCOc1ccc(/C=N\NC(N)=S)cc1,EC50,[1],> 60 µM (inconclusive)
same,EC50,[2],1.17 µM (active)
CNC(=O)c1ccsc1NC(=O)c1ccc(S(=O)(=O)N2CCCc3ccccc32)cc1,EC50,[1],> 60 µM (inconclusive)
same,EC50,[2],2.02 µM (active)
S=C(Nc1ccc(Oc2ccccc2)cc1)NC1CCCCCC1,AC50,[3],5.01 µM (active)
CN(C)Cc1ccccc1-c1cc(N(C)Cc2ccco2)ncn1,AC50,Cytochrome P450 3A4,25.1 µM (inconclusive)
Cc1n[nH]c(Nc2ccccc2)c1[N+](=O)[O-],AC50,Cytochrome P450 3A4,25.1 µM (inconclusive)
COc1ccc(S(=O)(=O)/C(C#N)=C/Nc2cccc(OC)c2)cc1,EC50,[5],> 195 µM (not active)
Cc1cc2nc(-c3ccc(SCc4ccc(C#N)cc4)nc3)[nH]c2cc1C,EC50,[1],> 60 µM (inconclusive)
same,EC50,[2],2.06 µM (active)
Cc1cc(OCC(=O)N2CCOCC2)ccc1NC(=O)c1ccccc1C,EC50,[5],> 195 µM (not active)
Fc1cccc(Cl)c1/C=N\N=C1c2ccccc2-c2ccccc21,AC50,Cytochrome P450 2C9,3.16 µM (inconclusive)
O=C(NNC(=S)Nc1ccccc1)c1ccco1,AC50,Cytochrome P450 2C9,35.5 µM (inconclusive)
Cc1noc(C)c1COc1cccc(C(=O)Nc2ccc(OCc3ccccc3)cc2)c1,AC50,[3],10.8 µM (active)
C/C(=N\Nc1ccc(C(=O)O)cc1)c1nc2ccccc2n1C,EC50,[6],18.9 µM (active)
O=C(COC(=O)C1C2CC3OC(=O)C1C3C2)Nc1cccc(Cl)c1 (stereo not given),EC50,[5],> 195 µM (not active)
CN(Cc1nc(-c2ccccc2)no1)C(=O)c1ccc2c(c1)OCO2,EC50,[5],> 195 µM (not active)
CCOc1ccc(C(=O)Nc2ccccc2N2CCCC2)cc1,AC50,Cytochrome P450 2C9,14.1 µM (inconclusive)
COc1cc(CCC(=O)OCn2nnc3ccccc3c2=O)cc(OC)c1OC,EC50,[5],> 195 µM (not active)
COc1ccccc1Oc1ccc2c(c1)C(=O)N(c1ccc(Br)c3cccnc13)C2=O,EC50,[5],> 195 µM (not active)
N#CC(=C1CCCC1)c1nc(-c2ccccc2)cs1,AC50,Cytochrome P450 2C9,25.1 µM (inconclusive)
COc1ccc(CN2CC=C(c3ccc(F)cc3)CC2)cc1Br,EC50,[5],> 195 µM (not active)
CC1CN(S(=O)(=O)c2ccc(C(=O)Nc3nnc(-c4ccc5c(c4)CCCC5)o3)cc2)CC(C)O1 (stereo not given),EC50,[1],3.39 µM (active)
same,EC50,[2],1.86 µM (active)
CCN(CC)C(=O)N[C@@H]1C[C@H]2c3cccc4[nH]cc(c34)C[C@@H]2N(C)C1,AC50,Cytochrome P450 3A4,6.31 µM (inconclusive) and 3.98 µM (inconclusive)
CCC(C)NC(=O)CN1C(=O)CN=C(c2ccccc2)c2ccccc21 (stereo not given),EC50,[5],> 195 µM (not active)
CCOc1cc(C#N)c(NC(=O)c2cccnc2Cl)cc1OCC,EC50,[5],> 195 µM (not active)
O=C(Oc1ccc2c(c1)CN(Cc1ccccc1)CO2)c1ccccc1,AC50,Cytochrome P450 3A4,3.98 µM (inconclusive)
CC(=O)OCC(=O)NCC(=O)c1c[nH]c2ccccc12,EC50,[5],> 195 µM (not active)
Nc1ncnc2c1ncn2[C@@H]1O[C@H](CO)C[C@@H]1O,EC50,[1],> 60 µM (not active)
same,EC50,[2],0.531 µM (active)
CC(C)(C)S(=O)(=O)c1cnc2c(-c3ccc(F)cc3)cnn2c1N,AC50,Cytochrome P450 3A4,7.94 µM (inconclusive)
Cc1c(C(=O)Nc2ccc(Cl)cc2)c2ccccn2c1C(=O)c1ccc([N+](=O)[O-])cc1,EC50,[1],> 60 µM (not active)
same,EC50,[2],0.737 µM (active)
CCOc1ccc(CN2CCN(Cc3nc4c(s3)CCCC4)CC2CCO)cc1 (stereo not given),EC50,[1],> 60 µM (not active)
same,EC50,[2],0.772 µM (active)
CN(C)c1ccc(/N=C/c2nc(-c3ccccc3)oc2OC(=O)c2cccc(Br)c2)cc1,EC50,[6],31 µM (active)
O=C1NC(=O)[C@@](Cc2ccccc2)(c2cccnc2)N1,AC50,Cytochrome P450 3A4,3.98 µM (inconclusive)
CCN(CC)S(=O)(=O)c1cc(C(=O)Nc2ccccc2C(=O)O)ccc1OC,AC50,Cytochrome P450 3A4,12.6 µM (inconclusive)
O=C(Nc1cccc(F)c1)N1CC[C@@]2(CCCNC2)C1,AC50,Cytochrome P450 3A4,7.94 µM (inconclusive)
NS(=O)(=O)c1ccc(NC(=O)COC(=O)C2(c3ccccc3F)CCCC2)cc1,EC50,[5],26 µM (active)
CCN1CCN(c2ccc(S(=O)(=O)N3CCCCC3)cc2NC(=O)Cc2ccccc2F)CC1,EC50,[1],> 30 µM (not active)
same,EC50,[2],0.235 µM (active)
CCN(CC(=O)Nc1ccc(NC(C)=O)cc1)C(=O)C12CC3CC(CC(Cl)(C3)C1)C2,EC50,[5],> 195 µM (not active)
COc1cc(CNCc2c[nH]c3ccccc23)cc(OC)c1,EC50,[1],> 60 µM (not active)
same,EC50,[2],2.93 µM (active)
CC(=O)Nc1ccc2nc(NC(=O)c3ccc([N+](=O)[O-])s3)sc2c1,EC50,[1],> 60 µM (not active)
same,EC50,[2],0.993 µM (active)
CCN1C(=O)c2ccccc2[S+]([O-])c2ccc(C(=O)NCc3ccc(OC)cc3)cc21 (stereo not given),EC50,[5],> 195 µM (not active)
COc1ncc2nc(C)c(=O)n(C3CC3)c2n1,AC50,Cytochrome P450 3A4,25.1 µM (inconclusive)
